This is an account of results in ChEMBL document CHEMBL1123015, “Thiol-containing androgens as suicide substrates of aromatase” (J Med Chem, 1985).

For the series, the target named is T1, Aromatase (Homo sapiens, UniProt P11511).
T1 sequence (P11511 whole entry): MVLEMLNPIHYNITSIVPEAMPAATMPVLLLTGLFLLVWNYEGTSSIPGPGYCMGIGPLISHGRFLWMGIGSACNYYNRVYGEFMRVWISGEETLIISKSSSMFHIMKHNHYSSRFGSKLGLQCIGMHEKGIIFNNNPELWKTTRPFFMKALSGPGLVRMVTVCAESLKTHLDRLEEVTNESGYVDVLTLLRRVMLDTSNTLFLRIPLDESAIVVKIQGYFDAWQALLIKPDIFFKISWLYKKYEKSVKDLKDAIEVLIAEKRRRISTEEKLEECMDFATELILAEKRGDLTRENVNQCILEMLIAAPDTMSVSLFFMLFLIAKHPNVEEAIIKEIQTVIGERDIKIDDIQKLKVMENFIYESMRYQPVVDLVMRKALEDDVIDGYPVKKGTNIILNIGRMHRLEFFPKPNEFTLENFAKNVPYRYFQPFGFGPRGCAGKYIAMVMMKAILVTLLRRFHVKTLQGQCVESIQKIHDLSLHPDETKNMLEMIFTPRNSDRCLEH
Briefly: Percentage aromatase activity remaining in human placental microsomes with NADPH. Type of series: functional, Placenta.

On to `C[C@]12CC[C@H]3[C@@H](CCC4=CC(=O)CC[C@@]43CS)[C@@H]1CCC2=O`, for which the Activity is on record as 94%.
